What follows are molecules tested on Trypanosoma cruzi (assay: Trypanocidal activity against Trypanosoma cruzi Y trypomastigotes assessed as parasite lysis).
Assay type: functional, organism-based

| SMILES | IC50 [µM] |
| --- | --- |
| COc1cc(/C=N/Nc2nnc(-c3ncc([N+](=O)[O-])n3C)s2)cc([N+](=O)[O-])c1O | 19 |
| Cn1c([N+](=O)[O-])cnc1-c1nnc(N/N=C/c2cccc(Br)c2)s1 | 728 |
| Cn1c([N+](=O)[O-])cnc1-c1nnc(N/N=C/c2ccccc2[N+](=O)[O-])s1 | 726 |
| Cn1c([N+](=O)[O-])cnc1-c1nnc(N/N=C/c2ccccc2Br)s1 | 900 |
| Cn1c([N+](=O)[O-])cnc1-c1nnc(N/N=C/c2cccc(Cl)c2Cl)s1 | 1210 |
| Cn1c([N+](=O)[O-])cnc1-c1nnc(N/N=C/c2cccc([N+](=O)[O-])c2)s1 | 48.2 |
| Cn1c([N+](=O)[O-])cnc1-c1nnc(N/N=C/c2cccc(O)c2)s1 | 73.9 |
| Cn1c([N+](=O)[O-])cnc1-c1nnc(N/N=C/c2ccccc2Cl)s1 | 140 |
| Cn1c([N+](=O)[O-])cnc1-c1nnc(N/N=C/c2cccc(Cl)c2)s1 | 187 |
| Cn1c([N+](=O)[O-])cnc1-c1nnc(N/N=C/c2cccc(O)c2O)s1 | 309 |
| Cn1c([N+](=O)[O-])cnc1-c1nnc(N/N=C/c2ccc(Cl)cc2Cl)s1 | 794 |
| Cn1c([N+](=O)[O-])cnc1-c1nnc(N/N=C/c2cc(O)ccc2O)s1 | 140 |

Reference: ChEMBL document CHEMBL1140757, “Studies toward the structural optimization of new brazilizone-related trypanocidal 1,3,4-thiadiazole-2-arylhydrazone derivatives” (Bioorg Med Chem, 2008)
